According to patent US9522160B2, “Ophthalmic formulations” (Inotek Pharmaceuticals Corporation, priority 2013, dated 2016):
Blank lines part the entries; values can stand above or below the compound they belong to.

What was measured:
[1] = system: normotensive monkeys; details: Compound A in combination with latanoprost; cited from earlier work
[2] = system: retinal ganglion cells; details: formulation of Compound A; cited from earlier work
[3] = Stability study of a 3% suspension of Compound A (Formulation 3) spiked with latanoprost; latanoprost and latanoprost acid by HPLC; assay type: physicochemical
Procedure: Latanoprost is added, usually aseptically, to the Formulation after the curing step or after all other formulation steps as described above. For example latanoprost can be spiked into Formulation 3 with Compound A at 3.0% (Example 5 above) to prepare a unit dosage of a combination of Compound A with a concentration of latanoprost of about 50 ug/ml. A stability study has been done to study the stability of a combination of a suspension of Compound A as Formulation 3 and latanoprost. The stability study is described below.
A 10 mL sample of a 3% suspension of Compound A spiked with latanoprost at 50 μg/mL was used for the stability study. Ethanol was used to disperse the latanoprost into the suspension of Compound A. The final solution ethanol target was 0.5% so for 10 mLs of the suspension, the latanoprost was dissolved in 50 μL of ethanol.
For 10 mls of the suspension, 0.5 mg of latanoprost was needed for the spike. A 50 μL sample of a commercial solution containing 10 mg/mL of latanoprost in methyl acetate was taken and the solvent removed under vacuum. The residue was taken up in 50 μL of ethanol.
A 9.950 mL sample of the suspension, taken with a 5 mL autopipette (2×4.975 mL) was spiked with the ethanol solution with mixing.
After taking a 500 μL T0 sample, the bulk solution was divided into 3 containers that were set down at 2-8° C., 25° C./60RH and 40° C./75RH.
The solution in this case would be 0.5 mg in 8.5 mL volume or […] of latanoprost in the suspension. Therefore for analysis, the theoretical latanoprost in solution after a 50% dilution with acetonitrile was 29.4 μg/mL.
A calibration curve of latanoprost acid was also prepared using the commercial solution that contained 10 mg/mL in methyl acetate.
In contrast to the latanoprost standards, these solutions were prepared in 100% acetonitrile.
The solutions injected were 5, 2.5 and 1.25 μg/mL solutions.
The stability samples were prepared by vortex mixing and sonication of the suspension followed by a 50% dilution with acetonitrile. After centrifugation the supernatant was injected on the HPLC.
The assay results are shown below in Table 2 where the calculated concentration is shown in μg/mL. (The theory concentration is 29.4 μg/ml),
4 week samples. For the 4 week 25° C./60 and 40° C./75 samples the calculated latanoprost acid values were 0.4 and 0.3 μg/mL respectively. The impurities increased slightly at 3 months. For the 3 month 25° C./60 and 40° C./75 samples the calculated latanoprost acid values were 0.63 and 3.92 μg/mL respectively.
Except for the 40° C./75 sample at 3 months the values for all other samples were below the calibration curve concentrations and therefore below the detection level of the method.

Structure (SMILES): O=[N+]([O-])OC[C@H]1O[C@@H](n2cnc3c(NC4CCCC4)ncnc32)[C@H](O)[C@@H]1O [Compound A, ((2R,3S,4R,5R)-5-(6-(cyclopentylamino)-9H-purin-9-yl)-3,4-dihydroxytetrahydrofuran-2-yl)methyl nitrate]
- IOP reduction [1]: significant IOP reduction
- neuroprotective effect on retinal ganglion cells [2]: neuroprotective effect

- Latanoprost Assay Results ([3]; 2-8° C., 2 Weeks): 32.29 µg/mL
- Latanoprost Assay Results (% T0) ([3]; 2-8° C., 2 Weeks): 109 % T0
- Latanoprost Assay Results (% T0) ([3]; 2-8° C., 3 Months): 121.1 % T0
- Latanoprost Assay Results ([3]; 2-8° C., 3 Months, sample contained some latanoprost impurities): 35.63 µg/mL
- Latanoprost Assay Results ([3]; 2-8° C., 4 Weeks): 33.97 µg/mL
- Latanoprost Assay Results (% T0) ([3]; 2-8° C., 4 Weeks): 115 % T0
- Latanoprost Assay Results ([3]; 25° C./60, 2 Weeks): 32.37 µg/mL
- Latanoprost Assay Results (% T0) ([3]; 25° C./60, 2 Weeks): 110 % T0
- Latanoprost Assay Results (% T0) ([3]; 25° C./60, 3 Months): 103.5 % T0
- Latanoprost Assay Results ([3]; 25° C./60, 3 Months, sample contained some latanoprost impurities): 30.42 µg/mL
- Latanoprost Assay Results (% T0) ([3]; 25° C./60, 4 Weeks): 112 % T0
- Latanoprost Assay Results ([3]; 25° C./60, 4 Weeks, sample contained some latanoprost impurities): 32.90 µg/mL
- Latanoprost Assay Results ([3]; 40° C./75, 2 Weeks): 31.35 µg/mL
- Latanoprost Assay Results (% T0) ([3]; 40° C./75, 2 Weeks): 106 % T0
- Latanoprost Assay Results (% T0) ([3]; 40° C./75, 3 Months): 89.0 % T0
- Latanoprost Assay Results ([3]; 40° C./75, 3 Months, sample contained some latanoprost impurities): 26.18 µg/mL
- Latanoprost Assay Results (% T0) ([3]; 40° C./75, 4 Weeks): 101 % T0
- Latanoprost Assay Results ([3]; 40° C./75, 4 Weeks, sample contained some latanoprost impurities): 29.90 µg/mL
- Latanoprost Assay Results ([3]; T0, 3% Compound A suspension spiked with latanoprost, 50% dilution with acetonitrile, theory concentration 29.4 μg/ml): 29.49 µg/mL
Structure (SMILES): CC(C)OC(=O)CCC/C=C\C[C@@H]1[C@@H](CC[C@@H](O)CCc2ccccc2)[C@H](O)C[C@@H]1O [Latanoprost, latanoprost]

- latanoprost acid present in stability sample ([3]; 2-8° C., 4 week sample): No latanoprost acid was present
- latanoprost acid present in stability sample ([3]; 2 week samples): No latanoprost acid was present
- latanoprost acid present in stability sample ([3]; T0 sample): No latanoprost acid was present
Structure (SMILES): O=C(O)CCC/C=C\C[C@@H]1[C@@H](CC[C@@H](O)CCc2ccccc2)[C@H](O)C[C@@H]1O [latanoprost acid]
